Data reported in patent US6673902B2, “Cyclin D binding factor, and uses thereof” (St. Jude Children's Research Hospital, priority 1996, dated 2004).

Assays:
[1] = tested on: BS1-driven reporter; experiment: Transactivation of BS1-driven luciferase reporter in 293T cells; format: cell-based, human
Source text: An XbaI-EcoRV fragment containing the entire DMP1 coding sequence is subcloned by blunt end ligation into a SpeI-XbaI fragment of the Rc/RSV vector (Invitrogen, La Jolla Calif.) to enable DMP1 expression in mammalian cells. 6×concatamerized BS1, 8×concatamerized, BS2, or 7×concatamerized M3 oligonucleotides (FIG. 5B) are inserted into the XhoI-SmaI sites of pGL2 (Pfornega) 5′ to a minimal simian virus 40 (SV40) early promoter driving firefly luciferase gene expression. The latter “reporter” plasmid (1 μg) together with increasing amounts of pRc/RSV-DMP1 expression plasmid compensated by decreasing quantities of control pRc/RSV DNA (total of both=2.5 μg) were transfected into 293T cells (1.5×10^6 cells per 60 mm diameter culture dish) by calcium phosphate precipitation (7). Two days later, cells were harvested, washed three times with PBS, and lysed in 1 ml of 25 mM glycylglycine (Sigma), pH 7.8, 15 mM MgSO4, 4 mM EDTA, 1 mM DTT, and 1% Triton X-100. After clearing by centrifugation, 50 μl aliquots were assayed diluted to 350 μl using 15 mM potassium phosphate buffer, pH 7.8, containing 15 mM MgSO4, 4 mM EGTA, 2 mM ATP, 1 mM DTT, and 67 uM luciferin (Sigma). Total light emission was measured for duplicate samples during the initial 20 seconds after luciferin injection with an Optocomp I luminometer (MGM Instruments, Hamden Conn.). […]

[2] = target: T1, recombinant DMP1 (Mus musculus, UniProt Q8CE22); experiment: EMSA competition, recombinant DMP1 and 281 base pair ARF promoter fragment; format: binding; settings: 200-fold excess of unlabelled oligonucleotide
T1 construct: made in house; host or cells: Sf9 insect cells, pAcYM1 baculovirus vector; used as crude lysate (~4 ng DMP1 per reaction)
T1 sequence (Q8CE22 1-761): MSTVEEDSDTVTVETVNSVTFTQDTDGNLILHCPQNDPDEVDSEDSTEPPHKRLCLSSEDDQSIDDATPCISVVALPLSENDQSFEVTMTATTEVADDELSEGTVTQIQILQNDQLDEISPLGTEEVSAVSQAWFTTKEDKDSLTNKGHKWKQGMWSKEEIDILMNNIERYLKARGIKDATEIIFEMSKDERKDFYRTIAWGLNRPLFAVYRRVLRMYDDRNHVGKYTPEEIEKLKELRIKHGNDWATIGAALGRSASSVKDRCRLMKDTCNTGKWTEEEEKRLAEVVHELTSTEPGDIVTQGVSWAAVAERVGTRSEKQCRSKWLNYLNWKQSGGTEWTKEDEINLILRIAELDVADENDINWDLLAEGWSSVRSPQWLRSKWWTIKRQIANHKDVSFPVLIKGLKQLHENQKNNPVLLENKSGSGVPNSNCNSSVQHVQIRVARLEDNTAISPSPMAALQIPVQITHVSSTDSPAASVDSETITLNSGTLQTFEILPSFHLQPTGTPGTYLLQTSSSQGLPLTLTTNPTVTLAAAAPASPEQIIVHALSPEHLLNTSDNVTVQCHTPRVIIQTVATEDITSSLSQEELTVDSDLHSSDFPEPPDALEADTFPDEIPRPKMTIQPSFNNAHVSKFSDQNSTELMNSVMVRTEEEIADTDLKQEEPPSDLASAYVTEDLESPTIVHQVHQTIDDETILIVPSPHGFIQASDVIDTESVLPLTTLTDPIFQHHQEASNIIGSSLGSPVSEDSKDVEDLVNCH
Description: Electrophoretic mobility shift assay (EMSA). Recombinant DMP1 protein was prepared in Sf9 cells [Hirai and Sherr, Mol. Cell. Biol. 16:6457-6467 (1996)]. Purified bacterial proteins representing the Ets1 DNA binding domain or full-length Ets1 [Inoue, et al., J. Biol. Chem. 273:29188-29194 (1998)] were used. EMSAs were performed [Inoue and Sherr, Mol. Cell. Biol. 18:1590-1600 (1998)] using either a 281-bp genomic fragment (−225 to +56) or double-stranded oligonucleotides containing the DMP1/Ets site obtained by annealing oligonucleotide 5′-[…]-3′ (sense strand SEQ ID NO:41); DMP1/Ets consensus sequence underlined) with a complementary antisense strand. For competition experiments, a 200-fold excess of unlabelled oligonucleotides was added to reaction mixtures before the probe. To verify the identity of the proteins in shifted complexes, reaction mixtures were incubated with control nonimmune rabbit serum (NRS), serum AF [Hirai and Sherr, Mol. Cell. Biol. 16:6457-6467 (1996)] and M-10 (both to DMP1 carboxylterminal epitopes), S-19 (DMP1 N-terminus), or C-20 (Ets1 C-terminus) before electrophoresis. M-10, S-19, and C-20 were from Santa Cruz Biotechnology.
The nucleotide sequence of the proximal promoter region of the murine ARF gene relative to the transcription initiation site as defined by S1 mapping analysis was determined (FIG. 13). […]

Substance | activation of the BS1-driven reporter [1] | competition for DMP1 binding to the 281 base pair ARF promoter fragment [2]
DMP1: murine cyclin D-associated myb-like transcription factor, 761 amino acids, SEQ ID NO:1 | 7 fold | –
M3: DMP1 deletion mutant (NcoI), amino acids 1-458 of SEQ ID NO:1 | – | did not compete
